# From patent US8461160B2, “Dihydropyrimidinones” (Hoffmann-La Roche, Inc., priority 2009, dated 2013)
# pIC50: −log10 of the molar value.
# Molecular target: T1, BACE2 (Homo sapiens, UniProt Q9Y5Z0)
# T1 construct: BACE2 enzyme ectodomain (derived from plasmid “pET17b-T7-hu proBACE2”) was prepared as described in Ostermann et al; T7 tag (N); made in house
# T1 sequence (Q9Y5Z0 21-473 limits assumed): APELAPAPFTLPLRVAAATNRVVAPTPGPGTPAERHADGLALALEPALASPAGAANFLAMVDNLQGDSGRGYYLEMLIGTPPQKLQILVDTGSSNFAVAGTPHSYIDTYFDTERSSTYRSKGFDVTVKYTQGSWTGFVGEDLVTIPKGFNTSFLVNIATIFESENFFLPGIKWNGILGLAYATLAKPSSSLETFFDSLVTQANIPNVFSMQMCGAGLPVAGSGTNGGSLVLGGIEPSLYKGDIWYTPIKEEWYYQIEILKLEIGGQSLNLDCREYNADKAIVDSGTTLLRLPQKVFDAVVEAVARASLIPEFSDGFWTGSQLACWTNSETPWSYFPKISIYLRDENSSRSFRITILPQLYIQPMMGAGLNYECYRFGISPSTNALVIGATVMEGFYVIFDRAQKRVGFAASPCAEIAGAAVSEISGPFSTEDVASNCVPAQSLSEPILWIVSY
# Assay: Fluorescent-peptide cleavage assay for BACE2 inhibition
# Assay type: biochemical
# Conditions: BACE2 enzyme ectodomain, fluorescent peptide WS EVNLD AEFRC-MR121, assay buffer pH 4.5, room temperature
# Protocol: Fluorescent-Peptide Cleavage Assay for BACE2 Inhibition
# The pro-enzyme was stored at 4° C. at a concentration of 70 μg/ml.
# A fluorescent peptide with the amino acid sequence WS EVNLD AEFRC-MR121 was synthesised and a stock solution of 1.5 mM in DMSO prepared and stored at −20° C. MR121 is a fluorophore with an excitation wavelength of 630 nm and emission wavelength of 695 nm. The MR121 fluorescence is quenched by the N-terminal tryptophan until the peptide is cleaved by BACE2.
# Assays were all made in a Corning 384-well black polystyrene non-binding surface microtitre plate with clear flat bottom and using a Plate:Vision (Perkin Elmer) fluorescence reader. To perform the assay an 80 nM solution of BACE2 was prepared in assay buffer (assay buffer is 100 mM Na-acetate; 20 mM EDTA; 0.05% BSA; pH 4.5) and incubated at room temperature for 1 hour to activate the enzyme. 39 μl of the activated BACE2 was placed in each assay well, followed by 1 μl compound to be tested at an appropriate concentration in 100% DMSO. The plate was then mixed and incubated for 10 minutes at room temperature.
# The assay readout is the rate of change of fluorescence intensity giving a relative measure of BACE2 activity. Small values correspond to high inhibition and larger values to low inhibition. […] IC50 values were determined using these assay values generated for a range of inhibitor concentrations and the curve fitting software XLfit (IDBS) using the Sigmoidal Dose-Response Model.
row,SMILES,pIC50
1,"CN1C(=O)C[C@@](C)(c2cccc(NC(=O)c3cnc(Cl)cn3)c2)N=C1N [Example 25, 5-Chloro-pyrazine-2-carboxylic acid [3-((S)-2-amino-1,4-dimethyl-6-oxo-1,4,5,6-tetrahydro-pyrimidin-4-yl)-phenyl]-amide]",8.00
2,"CN1C(=O)C[C@@](C)(c2cccc(NC(=O)c3ccncc3)c2)N=C1N [Example 26, N-[3-((S)-2-Amino-1,4-dimethyl-6-oxo-1,4,5,6-tetrahydro-pyrimidin-4-yl)-phenyl]-isonicotinamide]",6.02
3,"CN1C(=O)C[C@@](C)(c2cccc(NC(=O)c3ccc(F)cn3)c2)N=C1N [Example 27, 5-Fluoro-pyridine-2-carboxylic acid [3-((S)-2-amino-1,4-dimethyl-6-oxo-1,4,5,6-tetrahydro-pyrimidin-4-yl)-phenyl]amide]",7.74
4,"CN1C(=O)C[C@@](C)(c2cccc(NC(=O)c3ncccc3Cl)c2)N=C1N [Example 28, 3-Chloro-pyridine-2-carboxylic acid [3-((S)-2-amino-1,4-dimethyl-6-oxo-1,4,5,6-tetrahydro-pyrimidin-4-yl)-phenyl]amide]",7.74
5,"CN1C(=O)C[C@@](C)(c2cccc(NC(=O)c3cc(Cl)ccn3)c2)N=C1N [Example 29, 4-Chloro-pyridine-2-carboxylic acid [3-((S)-2-amino-1,4-dimethyl-6-oxo-1,4,5,6-tetrahydro-pyrimidin-4-yl)-phenyl]-amide]",7.32
6,"Cc1ccnc(C(=O)Nc2cccc([C@]3(C)CC(=O)N(C)C(N)=N3)c2)c1 [Example 30, 4-Methyl-pyridine-2-carboxylic acid [3-((S)-2-amino-1,4-dimethyl-6-oxo-1,4,5,6-tetrahydro-pyrimidin-4-yl)-phenyl]-amide]",6.82
7,"CN1C(=O)C[C@@](C)(c2cccc(NC(=O)c3cccc(Cl)n3)c2)N=C1N [Example 31, 6-Chloro-pyridine-2-carboxylic acid [3-((S)-2-amino-1,4-dimethyl-6-oxo-1,4,5,6-tetrahydro-pyrimidin-4-yl)-phenyl]-amide]",7.52
8,"Cc1cccc(C(=O)Nc2cccc([C@]3(C)CC(=O)N(C)C(N)=N3)c2)n1 [Example 32, 6-Methyl-pyridine-2-carboxylic acid [3-((S)-2-amino-1,4-dimethyl-6-oxo-1,4,5,6-tetrahydro-pyrimidin-4-yl)-phenyl]-amide]",6.66
9,"CN1C(=O)C[C@@](C)(c2cccc(NC(=O)c3cccnc3)c2)N=C1N [Example 33, N-[3-((S)-2-Amino-1,4-dimethyl-6-oxo-1,4,5,6-tetrahydro-pyrimidin-4-yl)-phenyl]-nicotinamide]",5.96
10,"CN1C(=O)C[C@@](C)(c2cccc(NC(=O)c3ccccc3)c2)N=C1N [Example 34, N-[3-((S)-2-Amino-1,4-dimethyl-6-oxo-1,4,5,6-tetrahydro-pyrimidin-4-yl)-phenyl]-benzamide]",6.70
11,"Cc1ncc(C(=O)Nc2cccc([C@]3(C)CC(=O)N(C)C(N)=N3)c2)cn1 [Example 35, 2-Methyl-pyrimidine-5-carboxylic acid [3-((S)-2-amino-1,4-dimethyl-6-oxo-1,4,5,6-tetrahydro-pyrimidin-4-yl)-phenyl]-amide]",5.19
12,"CN1C(=O)C[C@@](C)(c2cccc(NC(=O)c3c[nH]c(=O)cn3)c2)N=C1N [Example 36, 5-Oxo-4,5-dihydro-pyrazine-2-carboxylic acid [3-((S)-2-amino-1,4-dimethyl-6-oxo-1,4,5,6-tetrahydro-pyrimidin-4-yl)-phenyl]-amide]",7.38
13,"CN1C(=O)C[C@@](C)(c2cccc(NC(=O)c3ncccc3-c3ccccc3)c2)N=C1N [Example 37, 3-Phenyl-pyridine-2-carboxylic acid [3-((S)-2-amino-1,4-dimethyl-6-oxo-1,4,5,6-tetrahydro-pyrimidin-4-yl)-phenyl]-amide]",7.68
14,"Cc1nc(C(=O)Nc2cccc([C@]3(C)CC(=O)N(C)C(N)=N3)c2)co1 [Example 38, 2-Methyl-oxazole-4-carboxylic acid [3-((S)-2-amino-1,4-dimethyl-6-oxo-1,4,5,6-tetrahydro-pyrimidin-4-yl)-phenyl]-amide]",8.05
15,"CC[C@@]1(c2cccc(NC(=O)c3ccc(Cl)cn3)c2)CC(=O)N(C)C(N)=N1 [Example 39, 5-Chloro-pyridine-2-carboxylic acid [3-((S)-2-amino-4-ethyl-1-methyl-6-oxo-1,4,5,6-tetrahydro-pyrimidin-4-yl)-phenyl]-amide]",7.96
16,"CC[C@@]1(c2cccc(NC(=O)c3ccccn3)c2)CC(=O)N(C)C(N)=N1 [Example 40, Pyridine-2-carboxylic acid [3-((S)-2-amino-4-ethyl-1-methyl-6-oxo-1,4,5,6-tetrahydro-pyrimidin-4-yl)-phenyl]-amide]",7.41
17,"CC[C@@]1(c2cccc(NC(=O)c3ccc(Cl)s3)c2)CC(=O)N(C)C(N)=N1 [Example 41, 5-Chloro-thiophene-2-carboxylic acid [3-((S)-2-amino-4-ethyl-1-methyl-6-oxo-1,4,5,6-tetrahydro-pyrimidin-4-yl)-phenyl]-amide]",7.02
18,"CC[C@@]1(c2cccc(NC(=O)c3cccc(Cl)n3)c2)CC(=O)N(C)C(N)=N1 [Example 42, 6-Chloro-pyridine-2-carboxylic acid [3-((S)-2-amino-4-ethyl-1-methyl-6-oxo-1,4,5,6-tetrahydro-pyrimidin-4-yl)-phenyl]-amide]",6.90
19,"CC[C@@]1(c2cccc(NC(=O)c3ncccc3Cl)c2)CC(=O)N(C)C(N)=N1 [Example 43, 3-Chloro-pyridine-2-carboxylic acid [3-((S)-2-amino-4-ethyl-1-methyl-6-oxo-1,4,5,6-tetrahydro-pyrimidin-4-yl)-phenyl]-amide]",7.06
20,"CC[C@@]1(c2cccc(NC(=O)c3ncc(Cl)cn3)c2)CC(=O)N(C)C(N)=N1 [Example 44, 5-Chloro-pyrimidine-2-carboxylic acid [3-((S)-2-amino-4-ethyl-1-methyl-6-oxo-1,4,5,6-tetrahydro-pyrimidin-4-yl)-phenyl]-amide]",8.15
21,"CN1C(=N)N[C@](C)(c2cc(NC(=O)c3ccc(Cl)cn3)ccc2F)CC1=O [Example 45, 5-Chloro-pyridine-2-carboxylic acid [3-((S)-2-amino-1,4-dimethyl-6-oxo-1,4,5,6-tetrahydro-pyrimidin-4-yl)-4-fluoro-phenyl]amide]",8.15
22,"CN1C(=O)C[C@@](C)(c2cc(NC(=O)c3ncc(Cl)cn3)ccc2F)N=C1N [Example 46, 5-Chloro-pyrimidine-2-carboxylic acid [3-((S)-2-amino-1,4-dimethyl-6-oxo-1,4,5,6-tetrahydro-pyrimidin-4-yl)-4-fluoro-phenyl]amide]",7.85
23,"CN1C(=O)C[C@@](C)(c2cc(NC(=O)c3ccccn3)ccc2F)N=C1N [Example 47, Pyridine-2-carboxylic acid [3-((S)-2-amino-1,4-dimethyl-6-oxo-1,4,5,6-tetrahydro-pyrimidin-4-yl)-4-fluoro-phenyl]amide]",8.10
24,"CN1C(=N)N[C@](C)(c2cc(NC(=O)c3ccc(C(F)(F)F)cn3)ccc2F)CC1=O [Example 48, 5-Trifluoromethyl-pyridine-2-carboxylic acid [3-((S)-2-amino-1,4-dimethyl-6-oxo-1,4,5,6-tetrahydro-pyrimidin-4-yl)-4-fluoro-phenyl]amide]",8.05
25,"CCN1C(=O)C[C@@](C)(c2cccc(NC(=O)c3ccc(Cl)cn3)c2)N=C1N [Example 49, 5-Chloro-pyridine-2-carboxylic acid [3-((S)-2-amino-1-ethyl-4-methyl-6-oxo-1,4,5,6-tetrahydro-pyrimidin-4-yl)-phenyl]amide]",7.82
26,"C[C@@]1(c2cccc(NC(=O)c3ccc(Cl)cn3)c2)CC(=O)N(Cc2ccccc2)C(N)=N1 [Example 50, 5-Chloro-pyridine-2-carboxylic acid [3-((S)-2-amino-1-benzyl-4-methyl-6-oxo-1,4,5,6-tetrahydro-pyrimidin-4-yl)-phenyl]amide]",8.00
27,"C[C@@]1(c2cccc(NC(=O)c3ccc(Cl)cn3)c2)CC(=O)NC(N)=N1 [Example 51, 5-Chloro-pyridine-2-carboxylic acid [3-((S)-2-amino-4-methyl-6-oxo-1,4,5,6-tetrahydro-pyrimidin-4-yl)-phenyl]amide]",7.48
